Data from patent US12624067B2, “Cyclic peptide, cell scaffold material, cell separating material, and medium” (FUJIFILM Corporation, priority 2019, dated 2026).
Numbered stars: 1 amine (or outer) side, 2 acyl side, 3 side chain; on linkers, the order of the positions; unused ones are H or OH. Bridge positions count the residues as written; N and C are the ends. Square brackets hold non-standard residues; d marks the D form. Peptide text beside a SMILES is read from it. Pen = CC(C)(S)[C@H](N)C(=O)O; hCys = N[C@@H](CCS)C(=O)O; Orn = NCCC[C@H](N)C(=O)O; Dap = NC[C@H](N)C(=O)O; X1 = O=C(C[*:1])[*:2]; X2 = O=C(C[*:2])[*:1]

Columns and labels:
[1] = Evaluation of molecule stability (alkali treatment, LC/MS residual rate); type: physicochemical; conditions: 500 μM peptide plus equivalent of 1 M sodium hydroxide, 15° C., 20 minutes, LC/MS peak area
Procedure: The molecule stability of the cyclic peptide was evaluated by analyzing the alkali-treated cyclic peptide aqueous solution by liquid chromatography mass spectroscopy (LC/MS).
The alkali treatment was carried out by the following method. A 500 μM cyclic peptide aqueous solution was prepared, an equivalent of 1 M sodium hydroxide aqueous solution was added to this aqueous solution, and the resultant mixture was incubated at 15° C. for 20 minutes to obtain an alkali-treated cyclic peptide aqueous solution. The cyclic peptide residual rate was calculated by setting the total area of all peaks of the cyclic peptide before alkali treatment in LC/MS to 100% and determining the proportion of the total area of all peaks in LC/MS of the alkali-treated cyclic peptide aqueous solution, and the molecule stability was evaluated according to the following evaluation standards. It is preferable that the evaluation result satisfies the evaluation standard A, B, or C.
The conditions of the LC/MS used for the evaluation of molecule stability were set as follows. • LC apparatus: Prominence series (pump, column oven, autosampler, detector) (manufactured by Shimadzu Corporation) • MS detector: LC/MS2010EV (manufactured by Shimadzu Corporation) • Column: Cadenza CD-C18, inner diameter 2.0 mm×length 250 mm, particle size: 3 μm (manufactured by Imtakt Corporation) • Eluent A: a solution (pH 3) containing 10 mM ammonium formate as a solute, where the solvent is 100% water. • Eluent B: a solution (pH 3) containing 10 mM ammonium formate as a solute, where the solvent is acetonitrile/water=90/10. • Flow rate: 0.2 mL/min • Injection volume: 4 μL • Gradient: 0% to 30%: Eluent B (0 to 30 minutes), 100%: Eluent B (30 to 40 minutes), 0%: Eluent B (40 to 60 minutes)(B indicates the eluent B) • Column temperature: 45° C. • Ionization method: electrospray ionization (ESI) positive, ESI negative

human integrin αvβ5 = human integrin αvβ5 (Homo sapiens, UniProt P06756+P18084); experiment: Evaluation of integrin binding property (surface plasmon resonance, Biacore 3000, immobilized cyclic peptide); conditions: peptide immobilized on CM5 sensor chip; human integrin αvβ5 30-1,000 nM, 25° C., HEPES buffer with 5 mM magnesium chloride; read-out: Integrin binding property (dissociation constant)
human integrin αvβ5, sequence (P06756 31-889 limits assumed): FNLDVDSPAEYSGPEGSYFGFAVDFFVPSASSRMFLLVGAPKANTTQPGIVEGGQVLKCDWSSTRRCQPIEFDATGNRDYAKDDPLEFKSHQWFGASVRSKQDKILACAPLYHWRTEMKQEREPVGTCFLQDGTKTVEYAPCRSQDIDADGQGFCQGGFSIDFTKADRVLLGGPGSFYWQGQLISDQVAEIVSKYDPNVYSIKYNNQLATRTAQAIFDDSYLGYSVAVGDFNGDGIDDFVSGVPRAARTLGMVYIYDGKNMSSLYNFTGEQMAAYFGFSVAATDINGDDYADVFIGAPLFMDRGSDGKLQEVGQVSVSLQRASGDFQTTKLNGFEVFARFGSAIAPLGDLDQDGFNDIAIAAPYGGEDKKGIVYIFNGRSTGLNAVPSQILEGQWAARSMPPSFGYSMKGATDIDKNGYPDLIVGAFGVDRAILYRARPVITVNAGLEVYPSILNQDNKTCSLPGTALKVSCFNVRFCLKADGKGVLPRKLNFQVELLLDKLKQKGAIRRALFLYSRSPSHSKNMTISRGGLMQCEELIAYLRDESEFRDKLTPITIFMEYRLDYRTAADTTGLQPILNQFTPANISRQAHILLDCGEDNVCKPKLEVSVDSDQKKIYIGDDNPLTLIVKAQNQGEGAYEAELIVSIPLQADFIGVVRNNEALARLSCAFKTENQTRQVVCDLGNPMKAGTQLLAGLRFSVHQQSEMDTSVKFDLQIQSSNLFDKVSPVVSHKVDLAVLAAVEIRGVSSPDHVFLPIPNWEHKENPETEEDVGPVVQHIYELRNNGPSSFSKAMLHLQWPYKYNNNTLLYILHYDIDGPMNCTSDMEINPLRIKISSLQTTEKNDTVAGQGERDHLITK
human integrin αvβ5, sequence (P06756 891-1048 partner limits assumed): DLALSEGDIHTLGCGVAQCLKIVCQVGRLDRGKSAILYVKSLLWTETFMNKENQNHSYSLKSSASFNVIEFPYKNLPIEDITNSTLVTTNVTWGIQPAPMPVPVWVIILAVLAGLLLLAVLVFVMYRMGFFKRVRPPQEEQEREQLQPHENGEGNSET
human integrin αvβ5, sequence (P18084 24-799): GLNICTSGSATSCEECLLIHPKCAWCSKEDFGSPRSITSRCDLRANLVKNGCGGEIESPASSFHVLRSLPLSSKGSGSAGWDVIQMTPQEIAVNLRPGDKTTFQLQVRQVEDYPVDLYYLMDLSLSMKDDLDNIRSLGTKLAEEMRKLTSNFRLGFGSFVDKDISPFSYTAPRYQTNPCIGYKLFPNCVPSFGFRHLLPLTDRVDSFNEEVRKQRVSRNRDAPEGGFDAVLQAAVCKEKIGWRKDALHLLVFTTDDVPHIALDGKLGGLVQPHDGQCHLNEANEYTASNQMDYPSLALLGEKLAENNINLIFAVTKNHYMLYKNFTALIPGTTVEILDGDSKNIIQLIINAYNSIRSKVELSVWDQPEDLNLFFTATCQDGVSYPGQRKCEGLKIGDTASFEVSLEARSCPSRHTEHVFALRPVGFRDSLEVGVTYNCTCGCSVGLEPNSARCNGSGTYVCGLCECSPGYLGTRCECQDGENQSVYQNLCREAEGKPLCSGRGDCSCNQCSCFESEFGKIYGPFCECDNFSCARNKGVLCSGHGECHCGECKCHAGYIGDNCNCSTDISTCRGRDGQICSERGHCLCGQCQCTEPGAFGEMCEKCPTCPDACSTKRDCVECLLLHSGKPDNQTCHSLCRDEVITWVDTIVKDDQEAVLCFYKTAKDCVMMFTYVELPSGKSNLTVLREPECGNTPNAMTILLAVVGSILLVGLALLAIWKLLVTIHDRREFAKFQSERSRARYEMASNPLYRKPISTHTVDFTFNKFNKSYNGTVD
Procedure: A commercially available CM5 sensor chip (a carboxymethyl dextran introduction type, manufactured by GE Healthcare) was set in a surface plasmon resonance apparatus (product name: Biacore 3000, manufactured by GE Healthcare), the sensor was stabilized at a flow rate of 10 μL/min of a 4-(2-hydroxyethyl)-1-piperazineethanesulfonic acid (HEPES) buffer solution (20 mM HEPES-HCl, 150 mM NaCl, pH 7.4) for surface plasmon resonance (SPR), and 70 μL of a mixed aqueous solution of 0.2 M 1-(3-dimethylaminopropyl)-3-ethylcarbodiimide (EDC) and 0.04 M N-hydroxysuccinimide (NHS) was added thereto. Then, 300 μL of the sample solution of each of the above cyclic peptides diluted to 0.2 g/L with the HEPES buffer solution was supplied to the sensor chip, blocking treatment was subsequently carried out with an ethanolamine solution, and washing was carried out with a sodium hydroxide aqueous solution, whereby immobilization was carried out. However, only for the cyclic peptide 22, in which the number of lysine residues having an amino group as the immobilizing functional group was 1, the sample solution to be supplied to the sensor chip was set to 5,000 μL instead of 300 μL. Similarly; 70 μL of the mixed aqueous solution of 0.2 M EDC and 0.04 M NHS was added to another flow channel of the same sensor chip without immobilizing the sample, and then blocking treatment and washing treatment were carried out. Hereinafter, the obtained immobilization-treated sensor chip is referred to as an “immobilization-treated sensor chip A”.
After adding human integrin αvβ5 for 10 minutes at 25° C., which was diluted to 30 nM using a HEPES buffer solution to which magnesium chloride was added to 5 mM, in each flow channel of the immobilization-treated sensor chip A prepared in (1) above, the same HEPES buffer solution (containing 5 mM magnesium chloride) was allowed to flow as a running buffer for 30 minutes, and measurement was carried out with Biacore 3000.
Then, a regeneration treatment of removing human integrin αvβ5 was carried out by allowing a 0.5 M EDTA aqueous solution to flow through each flow channel for 10 minutes. Further, the above-described measurement process consisting of adding integrin for 10 minutes, allowing a running buffer to flow for 30 minutes, carrying out measurement with Biacore 3000, and carrying out regeneration treatment with 0.5 M EDTA aqueous solution was carried out in the same manner for 100 nM human integrin αvβ5, 300 nM human integrin αvβ5, and 1,000 nM human integrin αvβ5. Dissociation constant between the cyclic peptide and human integrin αvβ5 was calculated from the difference between the value measured by Biacore 3000 in the flow channel immobilized with the cyclic peptide and the value measured by Biacore 3000 in the flow channel unimmobilized with the cyclic peptide, in a case where each concentration of human integrin αvβ5 was allowed to flow; and the integrin binding property was evaluated according to the following evaluation standards. It is preferable that the evaluation result satisfies the evaluation standard A, B, or C.

Compound	Molecule stability (cyclic peptide residual rate) [1]	Kd (human integrin αvβ5) [nM]
N=C(N)NCCC[C@@H]1NC(=O)[C@@H]2CSSC[C@H](NC(=O)[C@H](CC(=O)O)NC(=O)CNC1=O)C(=O)N[C@@H](Cc1ccccc1)C(=O)N[C@H](C(=O)N[C@@H](CCCCN)C(=O)N[C@@H](CCCCN)C(=O)N[C@@H](CCCCN)C(=O)O)CSCC(=O)N[C@@H](CCCCN)C(=O)N2 [Cyclic peptide 48, reference compound] ({CH2CO}-KCRGDCFCKKK-OH; disulfide 2-6; thioether N-8; N-terminus and C-terminus assumed)	D (The residual rate of the cyclic peptide is less than 30%.)	
CC[C@H](C)[C@@H]1NC(=O)CSCC[C@@H](C(=O)N[C@@H](CCCCN)C(=O)N[C@@H](CCCCN)C(=O)N[C@@H](CCCCN)C(=O)O)NC(=O)[C@H](Cc2ccccc2)NC(=O)[C@@H]2CSCC(=O)NC[C@H](NC1=O)C(=O)N[C@@H](CCCNC(=N)N)C(=O)NCC(=O)N[C@@H](CC(=O)O)C(=O)N2 [Cyclic peptide 14] ({CH2CO}-I[Dap]RGDCF[hCys]KKK-OH; linker 2-6 via X2; thioether N-8)	A (The residual rate of the cyclic peptide is 70% or more.)	< 50
CC[C@H](C)[C@@H]1NC(=O)CSCC[C@@H](C(=O)N[C@@H](C)C(=O)N[C@@H](CCCCN)C(=O)N[C@@H](CCCCN)C(=O)N[C@@H](CCCCN)C(=O)O)NC(=O)[C@H](Cc2ccccc2)NC(=O)[C@@H]2CCCCNC(=O)CSCC[C@H](NC1=O)C(=O)N[C@@H](CCCNC(=N)N)C(=O)NCC(=O)N[C@@H](CC(=O)O)C(=O)N2 [Cyclic peptide 35] ({CH2CO}-I[hCys]RGDKF[hCys]AKKK-OH; linker 2-6 via X1; thioether N-8)	A (The residual rate of the cyclic peptide is 70% or more.)	< 50
N=C(N)NCCC[C@@H]1NC(=O)[C@@H]2CNC(=O)CSCC[C@H](NC(=O)[C@H](CC(=O)O)NC(=O)CNC1=O)C(=O)N[C@@H](Cc1ccccc1)C(=O)N[C@H](C(=O)N[C@@H](CCCCN)C(=O)N[C@@H](CCCCN)C(=O)N[C@@H](CCCCN)C(=O)O)CCSCC(=O)N[C@@H](CCCCN)C(=O)N2 [Cyclic peptide 21] ({CH2CO}-K[Dap]RGD[hCys]F[hCys]KKK-OH; linker 2-6 via X2; thioether N-8; N-terminus and C-terminus assumed)	A (The residual rate of the cyclic peptide is 70% or more.)	
N=C(N)NCCC[C@@H]1NC(=O)[C@@H]2CCCNC(=O)CSCC[C@H](NC(=O)[C@H](CC(=O)O)NC(=O)CNC1=O)C(=O)N[C@@H](Cc1ccccc1)C(=O)N[C@H](C(=O)N[C@@H](CCCCN)C(=O)N[C@@H](CCCCN)C(=O)N[C@@H](CCCCN)C(=O)O)CCSCC(=O)N[C@@H](CCC(=O)O)C(=O)N2 [Cyclic peptide 40] ({CH2CO}-E[Orn]RGD[hCys]F[hCys]KKK-OH; linker 2-6 via X2; thioether N-8)	A (The residual rate of the cyclic peptide is 70% or more.)	< 50
CC1(C)SCC(=O)N[C@@H](CCC(=O)O)C(=O)N[C@H]2CCCNC(=O)CSCC[C@H](NC(=O)[C@H](CC(=O)O)NC(=O)CNC(=O)[C@H](CCCNC(=N)N)NC2=O)C(=O)N[C@@H](Cc2ccccc2)C(=O)N[C@@H]1C(=O)N[C@@H](CCCCN)C(=O)N[C@@H](CCCCN)C(=O)N[C@@H](CCCCN)C(=O)O [Cyclic peptide 24] ({CH2CO}-E[Orn]RGD[hCys]F[Pen]KKK-OH; linker 2-6 via X2; thioether N-8)	A (The residual rate of the cyclic peptide is 70% or more.)	< 50
CC[C@H](C)[C@@H]1NC(=O)CSCC[C@@H](C(=O)N[C@@H](CCCCN)C(=O)N[C@@H](CCCCN)C(=O)N[C@@H](CCCCN)C(=O)O)NC(=O)[C@H](Cc2ccccc2)NC(=O)[C@@H]2CCSCC(=O)NC[C@H](NC1=O)C(=O)N[C@@H](CCCNC(=N)N)C(=O)NCC(=O)N[C@@H](CC(=O)O)C(=O)N2 [Cyclic peptide 1] ({CH2CO}-I[Dap]RGD[hCys]F[hCys]KKK-OH; linker 2-6 via X2; thioether N-8)	A (The residual rate of the cyclic peptide is 70% or more.)	50 to 100
CC[C@H](C)[C@@H]1NC(=O)CSC[C@@H](C(=O)N[C@@H](CCCCN)C(=O)N[C@@H](CCCCN)C(=O)N[C@@H](CCCCN)C(=O)O)NC(=O)[C@H](Cc2ccccc2)NC(=O)[C@@H]2CCCNC(=O)CSC[C@H](NC1=O)C(=O)N[C@@H](CCCNC(=N)N)C(=O)NCC(=O)N[C@@H](CC(=O)O)C(=O)N2 [Cyclic peptide 10] ({CH2CO}-ICRGD[Orn]FCKKK-OH; linker 2-6 via X1; thioether N-8)	B (The residual rate of the cyclic peptide is 50% or more and less than 70%.)	50 to 100
N=C(N)NCCC[C@@H]1NC(=O)[C@@H]2CCSCC(=O)NCCCC[C@H](NC(=O)[C@H](CC(=O)O)NC(=O)CNC1=O)C(=O)N[C@@H](Cc1ccccc1)C(=O)N[C@H](C(=O)N[C@@H](CCCCN)C(=O)N[C@@H](CCCCN)C(=O)N[C@@H](CCCCN)C(=O)O)CCSCC(=O)N[C@@H](CC(=O)O)C(=O)N2 [Cyclic peptide 29] ({CH2CO}-D[hCys]RGDKF[hCys]KKK-OH; linker 2-6 via X1; thioether N-8)	A (The residual rate of the cyclic peptide is 70% or more.)	< 50
CC[C@H](C)[C@@H]1NC(=O)CSC[C@@H](C(=O)N[C@@H](CCCCN)C(=O)N[C@@H](CCCCN)C(=O)N[C@@H](CCCCN)C(=O)O)NC(=O)[C@H](Cc2ccccc2)NC(=O)[C@@H]2CCSCC(=O)NC[C@H](NC1=O)C(=O)N[C@@H](CCCNC(=N)N)C(=O)NCC(=O)N[C@@H](CC(=O)O)C(=O)N2 [Cyclic peptide 13] ({CH2CO}-I[Dap]RGD[hCys]FCKKK-OH; linker 2-6 via X2; thioether N-8)	A (The residual rate of the cyclic peptide is 70% or more.)	50 to 100
CC(C)C[C@@H]1NC(=O)CSCC[C@@H](C(=O)N[C@@H](CCCCN)C(=O)N[C@@H](CCCCN)C(=O)N[C@@H](CCCCN)C(=O)O)NC(=O)[C@H](Cc2ccccc2)NC(=O)[C@@H]2CCCCNC(=O)CSCC[C@H](NC1=O)C(=O)N[C@@H](CCCNC(=N)N)C(=O)NCC(=O)N[C@@H](CC(=O)O)C(=O)N2 [Cyclic peptide 26] ({CH2CO}-L[hCys]RGDKF[hCys]KKK-OH; linker 2-6 via X1; thioether N-8)	A (The residual rate of the cyclic peptide is 70% or more.)	< 50
CC[C@H](C)[C@@H]1NC(=O)CSC[C@@H](C(=O)N[C@@H](CCCCN)C(=O)N[C@@H](CCCCN)C(=O)N[C@@H](CCCCN)C(=O)O)NC(=O)[C@H](Cc2ccccc2)NC(=O)[C@@H]2CCCCNC(=O)CSC[C@H](NC1=O)C(=O)N[C@@H](CCCNC(=N)N)C(=O)NCC(=O)N[C@@H](CC(=O)O)C(=O)N2 [Cyclic peptide 12] ({CH2CO}-ICRGDKFCKKK-OH; linker 2-6 via X1; thioether N-8)	B (The residual rate of the cyclic peptide is 50% or more and less than 70%.)	< 50
